| Structure (SMILES) | melting point [°C] |
| --- | --- |
| O=C(Nc1ccc(-n2nc(C3CC3)cc2C2CC2)cc1)c1c(Cl)cncc1Cl | 159 to 164 |
| Cc1cc(C)cc(Sc2cccc([N+](=O)[O-])c2C#N)c1 | 155 to 156 |
| COc1ccc2ccccc2c1CCCC(=O)O | 88 |
| COC(=O)NC(=O)Nc1nc2ccccc2s1 | 338 to 340 |
| Cc1cc(-c2nnc3c4ccccc4c(OCc4cnn(C)c4)nn23)no1 | 212 to 213 |
| N#CC1(CCCCCCCCCCCCC2(C#N)CC2)CC1 | 45 to 46.9 |
| CC(C(=NO)c1ccc(Cl)cc1Cl)c1cccnc1 (configuration not stated) | 163 to 165 |
| O=C1Oc2ccccc2Sc2ccccc21 | 124 |
| O=c1[nH]c2cc(Cl)ccc2c(=O)n1S(=O)(=O)c1c(Cl)cccc1Cl | 260 to 261 |
| CCOC(=O)CCC1OC(n2cc(CC)c(=O)[nH]c2=O)CC1OC(C)=O (configuration not stated) | 137 to 138 |
| CN(C)C=CC(=O)c1ccsc1 | 89 to 90 |
| O=C(NCc1ccccc1)c1ccnc(-n2ccc(-c3ccccc3)cc2=O)c1 | 162 to 163 |
| CCOc1ccc2ccccc2c1C(=O)NC(Cc1ccc(C(F)(F)F)cc1)C(=O)c1ccc(F)cc1 (configuration not stated) | 188 to 189 |
| CN(C)C(=O)N1Cc2c(-c3noc(C4CC4)n3)ncn2-c2cccc(F)c21 | 194 to 195 |
| Cn1c2c(c3cccc(OCc4ccccc4)c31)C(=O)NCC2 | 199 to 201 |
| Nc1cc(Cl)c(Oc2ccc(Cl)cc2)cc1C(=O)O | 160 to 170 |
| N#Cc1nc(-c2cnn(-c3c(Cl)cc(C(F)(F)F)cc3Cl)n2)[nH]c1C#N | 192 to 194 |
| CC(C)(N)CCOc1ccc(C2=NNC(=O)CC2)cc1Cl | 152 to 156 |
| CCOC(=O)C1=CC(C(=O)c2ccccc2O)=CN2CCc3c([nH]c4ccccc34)C12C(=O)OCC (configuration not stated) | 209 |
| Cc1ccn(-c2ccc(C(=O)c3cccc4c3Nc3ncccc3C(C)N4)c(C(F)(F)F)c2)n1 (configuration not stated) | 188 to 190 |
| COC(=O)C1=C(C)NC(C)=C(C(=O)O)C1c1ccccc1 (single isomer, unassigned; (-)) | 158 to 159 |

| Structure (SMILES) | melting point [°C] |
| --- | --- |
| O=C1NC(C(=O)NCCO[N+](=O)[O-])C(c2cccc3ccccc23)S1 (configuration not stated) | 151 to 153 |
| CC(OC=O)C1C(=O)N([Si](C)(C)C(C)(C)C)C1CC(=O)O (mixture of isomers) | 109 to 110 |
| O=C(Nc1ccccc1S(=O)(=O)NCCCn1ccnc1)c1cccc(C(F)(F)F)c1 | 145 to 147 |
| CCN1CCc2ccc(Nc3ncc(C(F)(F)F)c(Nc4ccc(N5CCOCC5)cc4OC)n3)cc2CC1 | 167 to 170 |
| O=C(O)c1ccc(-c2ccc(C(=O)O)c(C(=O)O)c2)cc1C(=O)O | 295 to 302 |
| N#CCc1ccc(-c2nc3ccccc3o2)cc1-c1cccc(C#N)c1 | 175 to 176 |
| OCc1ccc(-c2cn([C@H]3CN4CCC3CC4)nn2)cc1 | 200 |
| Oc1ccc(NC2CCc3cc(O)ccc3C2)cc1 (configuration not stated) | 193 to 195 |
| O=C1c2ccccc2C(=O)N1Nc1ccc(Br)cc1 | 205 to 206 |
| O=C(N[C@H]1CCC[C@@H](CN2CC=C(c3ccccc3)CC2)C1)c1ccccc1 | 200 to 204 |
| CCC(=O)c1cccc2nc3n(c12)CCCN3c1ccc(Cl)cc1Cl | 195 to 196 |
| Nc1ccc(Cc2ccc(N)c(C(F)(F)F)c2)cc1C(F)(F)F | 84 to 88 |
| CCOC(=O)Cc1ccc(C(=O)Cl)n1C | 52 to 54 |
| COc1ccc2c(c1OC)CCC2C(=O)O (configuration not stated) | 128 to 130 |
| O=Cc1ccc2ccn(C(c3ccccc3)c3cccc(C=Cc4ccc5ccccc5n4)c3)c2c1 (configuration not stated) | 75 |
| CCOC(=O)COc1ccc([N+](=O)[O-])cc1Cl | 73 to 74 |
| CC(=O)Nc1nc(Oc2ccccc2)nc2nc(-c3ccco3)nn12 | 168 to 170 |
| CC1(C)CS(=O)CC(C)(C)c2[nH]c(-c3ccccc3)nc21 | 273 to 275 |
| CSc1c2c3c(cccc3n1CO)C1C=C(C)CN(C)C1C2 (configuration not stated) | 133 to 135 |
| COc1cc(N(C(C)=O)c2c(C#N)cnc3ccsc23)c(Cl)cc1Cl | 202 to 204 |
| N#Cc1cnn(-c2ccc(Cl)c(Cl)c2Cl)c1N(C(=O)Oc1ccccc1)C(=O)Oc1ccccc1 | 206 to 208 |

| Structure (SMILES) | melting point [°C] |
| --- | --- |
| COc1cccc2c(N(C)c3ccccc3)nc(N(C)c3ccccc3)nc12 | 169 to 170 |
| CC(=O)Nc1cc(Cl)c(C)cc1Br | 154 to 155 |
| OC[C@H]1OC[C@@H](n2c(Br)nc3cc(Cl)c(Cl)cc32)[C@H](O)[C@@H]1O | 207 to 209 |
| OCc1c(-c2ccc(F)cc2)nn2ccc3c(c12)CCO3 | 189 to 190 |
| CC(=O)c1nc2ccc(Cl)cc2cc1OCc1ccccc1 | 107 to 110 |
| CC(C)c1ccc(S(=O)(=O)Nc2cnc(I)cc2C(F)(F)F)cc1 | 156 |
| Cc1nnc(-c2ccc3occ(-c4ccc(S(=O)(=O)Cc5ccccc5)cc4)c3c2)o1 | 229 to 230 |
| CC1(C)CC2(CC(C)(C)N1)NC(C)(CO)CO2 (configuration not stated) | 90 to 92 |
| CC(=O)Nc1ccc(-c2cccc(C3=NC(C)(C)Cc4cc(O)c5c(c43)CC(C)(C)O5)c2)cc1 | 185 to 189 |
| BrCc1cccc(-c2ccccc2)c1 | 54 to 56 |
| O=CNc1nc(OCOC(=O)C2CCCC2)ncc1F | 76 to 79 |
| NC(=O)c1ccn2c1CSC2c1cccnc1 (single isomer, unassigned; (+)) | 210 |
| Cc1cc(Br)ccc1-n1ccc(O)n1 | 208 to 210 |
| COC(=O)c1ccccc1C(=O)c1ccc(CBr)cc1 | 88.2 to 91.5 |
| COc1cc(N2CCOCC2)ccc1Nc1nc(Nc2ccc3c(c2OC)CCCC(=O)N3C)ncc1Cl | 197 to 199 |
| O=c1c2cc(Oc3ccc(Cl)cc3)ccc2cnn1Cc1cccnc1 | 150 to 152 |
| O=C1NC(C(Cl)(Cl)Cl)Nc2ccc(I)cc21 (configuration not stated) | 224 to 225 |
| CCOC(=O)c1cccc(-c2cc3c(Cl)ncnc3[nH]2)c1 | > 250 |
| CC(=O)CCc1nc2ccc3c(c2o1)C(CCNC(C)=O)CC3 (configuration not stated) | 111 to 112 |

Now from value to compound:

| melting point [°C] | Structure (SMILES) |
| --- | --- |
| 158 to 160 | COc1cc(C(O)c2ccc(C(=O)N(C(C)C)C3CCCCC3)cc2)cc(OC)c1OC (configuration not stated) |
| 136 to 138 | COc1cc(NCCN(Cc2ccccc2)Cc2ccccc2)ccc1C(N)=O |
| 206 to 207 | OCc1cc2cc(-c3ccc4ccc(Cl)cc4n3)ccc2o1 |
| 178 to 179 | CCOC(=O)c1cc(-c2nccs2)[nH]c1C(CC1CCOCC1)c1ccc(S(=O)(=O)C2CC2)cc1 (configuration not stated) |
| 104 | NCc1ccc(O)cc1 |
| 243 to 244 | O=C(Nc1nnn[nH]1)c1oc2ccc(Cl)cc2c1OCC1CC1 |
| 178 to 180 | CC(=O)OC1(Cc2ccncc2)C(=O)N(N2CCOCC2)c2ccccc21 (configuration not stated) |
| 177 to 178 | Cc1oc(-c2ccccc2)nc1CNC(=O)c1ccc(Cn2cc(CCC(=O)O)c(-c3ccccc3)n2)cc1 |
| 96 to 97 | CCOC(=O)c1nn(-c2ccc(C=O)cc2)nc1-c1ccccc1 |
| 120 | CCNc1cc(Cl)nc(C#N)c1[N+](=O)[O-] |
| 55 to 59 | Cn1cc(C(=O)N=C=O)c([N+](=O)[O-])n1 |
| 179 to 180 | CS(=O)(=O)Nc1ccc(C=C2CCOC2=O)cc1Oc1ccc(F)cc1F |
| 55 to 58 | CCOC(=O)c1oc(Cl)nc1C |
| 189 to 190 | COc1ccc2nc(-c3ccc(OC)c(F)c3)cc(C#N)c2c1 |
| 199 | O=S(=O)(c1ccc(OCCCBr)cc1)c1c(-c2ccccc2)cn2ccccc12 |
| 99 to 101 | Clc1ccccc1Oc1cnccc1N1CCNCC1 |
| 151 | O=C(N[C@H](c1ccccc1)[C@@H](O)CO)c1cc2ccccc2[nH]1 (racemic) |
| 321 to 322 | COc1cc2c(c(OC(C)=O)c1OC)=NC(=O)C(=O)N=2 |
| 79 to 81 | N#Cc1ccc(OCCc2cccc(F)c2)cc1 |
| 161 to 162 | CC(C)c1cccc(C(C)C)c1NC(=S)NC(C)(C)C(C)(C)C |
| 115 to 116 | Cc1sc(-c2ccco2)nc1COc1ccc(CCl)cc1 |

| melting point [°C] | Structure (SMILES) |
| --- | --- |
| 252 to 254 | Cc1cccc(NC(=O)NC2CN(C(=O)C(C)(C)C)c3ccccc3N(CC(=O)N(C)C)C2=O)c1 (configuration not stated) |
| 107 to 108 | CCCc1c(OCCCCCCc2ccc(OC)c(OC)c2Cl)ccc(C(=O)O)c1O |
| 158 to 159 | CN1C(c2ccc(Br)cc2)C2C(=O)N(Cc3ccc4c(c3)OCO4)C(O)C2C1(C)C (configuration not stated) |
| 217 to 221 | CS(=O)c1cccc(S(N)(=O)=O)c1 (configuration not stated) |
| > 260 | CC(=O)Nc1ccc(-c2ccc(C(=O)O)c(=O)[nH]2)cc1 |
| 240 | CCS(=O)c1ccc(-c2nc(-c3ccc(F)cc3)c(-c3ccncc3)[nH]2)cc1 (configuration not stated) |
| 108 to 110 | CC(C)COc1ccc2c(c1)N(C)C(=O)N(c1ccc(Cl)cc1)S2(=O)=O |
| 175 to 178 | CSc1nc2cc(C(F)(F)F)ccc2n1NC(C)=O |
| 86 to 87 | O=C(O)CCSC(C(=O)O)c1ccccc1CCCCCCCCc1ccccc1 (configuration not stated) |
| 95 to 100 | O=C(O)c1cn(CCCc2ccccc2)c2cc(C3CC3)nn2c1=O |
| 161 to 163 | CCOC(=O)c1cnc2c(c(C)nc3cc(C)nn32)c1N1CCCCC1 |
| 62 to 63 | CCOC(=O)c1cc2cccc([N+](=O)[O-])c2n1COC |
| 174 to 175 | CC(=O)c1ccc(-c2ccccc2NC(=N)N(C)C)cc1 |
| 50 to 52 | Ic1ccc(OC2CCCC2)cc1 |
| 154 to 156 | CCc1c(C)nc2ccc(C)cn2c1=O |
| 71 to 75 | COC(=O)c1ccc(SC)nc1OC |
| 265 to 267 | O=c1[nH]c2c([nH]c1=O)C(N1CCOCC1)c1ccccc1-2 (configuration not stated) |
| 203 to 204 | CCn1c(=O)ccc2cnc(Nc3ccccc3)nc21 |
| 210 to 211 | Cc1ccc(-c2ccc3c(c2)C=C(C(=O)Nc2ccc(CN4CCCCC4)cc2)CC(c2ccccc2)O3)cc1 (configuration not stated) |
| 258 to 259 | CC1(C)OC(=S)Nc2ccc(-c3cc(C#N)cs3)cc21 |
